From ChEMBL document CHEMBL1201862, “PubChem BioAssay data set” (2004)
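48-hour exposure; five concentrations; linearly interpolated endpoints. Here, GI50 denotes the concentration required for 50% inhibition of growth.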 Activity calls are given as the source filed them. Cut-off read from the data, not from the text of the source: active = GI50 up to about 1.1 µM and inactive = higher.

Columns and labels:
Test in all cases: DTP human tumour cell line panel, 48 h
EKVX = system: EKVX
OVCAR-4 = system: OVCAR-4
BT-549 = system: BT-549
A498 = system: A498
HCC 2998 = system: HCC 2998
IGROV-1 = system: IGROV-1
OVCAR-5 = system: OVCAR-5
OVCAR-8 = system: OVCAR-8
MDA-N = system: MDA-N
Hs-578T = system: Hs-578T
CAKI-1 = system: CAKI-1
SF-295 = system: SF-295
SNB-75 = system: SNB-75
MDA-MB-231 = system: MDA-MB-231
SK-MEL-5 = system: SK-MEL-5
NCI-H460 = system: NCI-H460
NCI/ADR-RES = system: NCI/ADR-RES
SK-MEL-2 = system: SK-MEL-2
SK-OV-3 = system: SK-OV-3
ACHN = system: ACHN

SMILES	GI50 (EKVX)	GI50 (OVCAR-4)	GI50 (BT-549)	GI50 (A498)	GI50 (HCC 2998)	GI50 (IGROV-1)	GI50 (OVCAR-5)	GI50 (OVCAR-8)	GI50 (MDA-N)	GI50 (Hs-578T)	GI50 (CAKI-1)	GI50 (SF-295)	GI50 (SNB-75)	GI50 (MDA-MB-231)	GI50 (SK-MEL-5)	GI50 (NCI-H460)	GI50 (NCI/ADR-RES)	GI50 (SK-MEL-2)	GI50 (SK-OV-3)	GI50 (ACHN)
CN(/N=C\c1ccc2ccccc2c1)C1=NCCCCN1	19.7 µM (inactive)	30.2 µM (inactive)	14.6 µM (inactive)	21 µM (inactive)	14.5 µM (inactive)	26.5 µM (inactive)	36.5 µM (inactive)	29.8 µM (inactive)	16.3 µM (inactive)	20.6 µM (inactive)	11.8 µM (inactive)	15.7 µM (inactive)	10.4 µM (inactive)	21.9 µM (inactive)	13.8 µM (inactive)	17.2 µM (inactive)	26.7 µM (inactive)	23.8 µM (inactive)	22.1 µM (inactive)	33.7 µM (inactive)
CSc1nc(C)cc(Nc2ccc(O)c(CN3CCOCC3)c2)n1	83 µM (inactive)	> 100 µM (inactive)	> 100 µM (inactive)	> 100 µM (inactive)	> 100 µM (inactive)	> 100 µM (inactive)	> 100 µM (inactive)	> 100 µM (inactive)	> 100 µM (inactive)	> 100 µM (inactive)	> 100 µM (inactive)	> 100 µM (inactive)	> 100 µM (inactive)	> 100 µM (inactive)	65 µM (inactive)	> 100 µM (inactive)	> 100 µM (inactive)	> 100 µM (inactive)	> 100 µM (inactive)	> 100 µM (inactive)
O=C1/C(=C\c2ccc(Cl)cc2Cl)Sc2scc(-c3cccc([N+](=O)[O-])c3)[n+]21	7.57 µM (inactive)	12 µM (inactive)	4.45 µM (inactive)	49 µM (inactive)	7.64 µM (inactive)	6.31 µM (inactive)	15.5 µM (inactive)	8.15 µM (inactive)	4.28 µM (inactive)	24.7 µM (inactive)	3.03 µM (inactive)	24.9 µM (inactive)	19.9 µM (inactive)	9.14 µM (inactive)	2.09 µM (inactive)	13.1 µM (inactive)	8.75 µM (inactive)	14.2 µM (inactive)	41 µM (inactive)	3.33 µM (inactive)
O=[N+]([O-])c1ccc(Cl)cc1-n1nc(-c2ccccc2)cc1-c1ccccc1	> 100 µM (inactive)	> 100 µM (inactive)	> 100 µM (inactive)	> 100 µM (inactive)	> 100 µM (inactive)	> 100 µM (inactive)	> 100 µM (inactive)	> 100 µM (inactive)	> 100 µM (inactive)	81.3 µM (inactive)	> 100 µM (inactive)	> 100 µM (inactive)	> 100 µM (inactive)	> 100 µM (inactive)	> 100 µM (inactive)	> 100 µM (inactive)	> 100 µM (inactive)	> 100 µM (inactive)	> 100 µM (inactive)	> 100 µM (inactive)
CSC1=C(C#N)C(=O)N(c2ccc(C)cc2)C(=S)C1C#N (stereo not given)	> 100 µM (inactive)	> 100 µM (inactive)	> 100 µM (inactive)	> 100 µM (inactive)	> 100 µM (inactive)	> 100 µM (inactive)	> 100 µM (inactive)	> 100 µM (inactive)	> 100 µM (inactive)	> 100 µM (inactive)	> 100 µM (inactive)	> 100 µM (inactive)	77.1 µM (inactive)	> 100 µM (inactive)	> 100 µM (inactive)	> 100 µM (inactive)	> 100 µM (inactive)	> 100 µM (inactive)	> 100 µM (inactive)	> 100 µM (inactive)
O=C(O)c1ccccc1C(=O)c1ccc2c(c1)Cc1ccccc1-2	68.5 µM (inactive)	> 100 µM (inactive)	78.9 µM (inactive)	> 100 µM (inactive)	28.1 µM (inactive)	> 100 µM (inactive)	> 100 µM (inactive)	83.2 µM (inactive)	48.8 µM (inactive)	> 100 µM (inactive)	> 100 µM (inactive)	69.7 µM (inactive)	> 100 µM (inactive)	> 100 µM (inactive)	> 100 µM (inactive)	46.1 µM (inactive)	99.1 µM (inactive)	> 100 µM (inactive)	> 100 µM (inactive)	56.6 µM (inactive)
COc1ccc2c(c1)O[C@@H]1[C@@H](OC3OC(CO)C(O)C(O)C3O)Oc3cc(OC)c(OC)cc3[C@]1(O)C2=O (stereo not given in full)	> 100 µM (inactive)	> 100 µM (inactive)	> 100 µM (inactive)	> 100 µM (inactive)	> 100 µM (inactive)	> 100 µM (inactive)	> 100 µM (inactive)	> 100 µM (inactive)	> 100 µM (inactive)	> 100 µM (inactive)	> 100 µM (inactive)	> 100 µM (inactive)	> 100 µM (inactive)	> 100 µM (inactive)	> 100 µM (inactive)	> 100 µM (inactive)	> 100 µM (inactive)	> 100 µM (inactive)	> 100 µM (inactive)	> 100 µM (inactive)
Cc1ccc(Nc2nc3[nH]ccc3c(=O)[nH]2)cc1	76.2 µM (inactive)	> 100 µM (inactive)	70.3 µM (inactive)	18.1 µM (inactive)	71.6 µM (inactive)	> 100 µM (inactive)	> 100 µM (inactive)	> 100 µM (inactive)	> 100 µM (inactive)	35.8 µM (inactive)	85.5 µM (inactive)	72.9 µM (inactive)	2.24 µM (inactive)	52.7 µM (inactive)	> 100 µM (inactive)	> 100 µM (inactive)	> 100 µM (inactive)	> 100 µM (inactive)	> 100 µM (inactive)	> 100 µM (inactive)
CC1(CCCO)CCCCCCCCCC(C)(CCCO)C1=O (stereo not given)	> 100 µM (inactive)	> 100 µM (inactive)	> 100 µM (inactive)	> 100 µM (inactive)	> 100 µM (inactive)	> 100 µM (inactive)	> 100 µM (inactive)	> 100 µM (inactive)	> 100 µM (inactive)	> 100 µM (inactive)	> 100 µM (inactive)	> 100 µM (inactive)	> 100 µM (inactive)	> 100 µM (inactive)	> 100 µM (inactive)	> 100 µM (inactive)	> 100 µM (inactive)	97.5 µM (inactive)	> 100 µM (inactive)	> 100 µM (inactive)
CC(=O)O[C@H]1C(=O)[C@@]2(C)[C@H]([C@H](OC(=O)c3ccccc3)[C@]3(O)C[C@H](OC(=O)[C@H](O)[C@@H](NC(=O)c4ccccc4)c4ccccc4C)C(C)=C1C3(C)C)[C@]1(OC(C)=O)CO[C@@H]1C[C@@H]2O	7.4 µM (inactive)	3.78 µM (inactive)	0.687 µM (active)	0.444 µM (active)	0.782 µM (active)	0.449 µM (active)	0.843 µM (active)	1.41 µM (inactive)	0.0632 µM (active)	0.222 µM (active)	5.35 µM (inactive)	1.16 µM (inactive)	0.767 µM (active)	3.18 µM (inactive)	0.406 µM (active)	0.811 µM (active)	> 25 µM (inactive)	2.34 µM (inactive)	1.02 µM (active)	2.44 µM (inactive)
